Test results published in ChEMBL document CHEMBL3792312, “Synthesis and docking studies of pyrazine-thiazolidinone hybrid scaffold targeting dormant tuberculosis” (Bioorg Med Chem Lett, 2016).
≈ marks a conversion by molar mass, not a printed value.

Key:
[1] = tested on: Mycolicibacterium smegmatis; assay: Antitubercular activity against dormant Mycobacterium smegmatis MC2 155 at 30 ug after 12 days by XTT-Menadione assay; assay type: functional, str. MC2 155
[2] = tested on: Mycobacterium tuberculosis; assay: Antitubercular activity against dormant Mycobacterium tuberculosis H37Ra at 30 ug after 12 days by XTT-Menadione assay; assay type: functional
[3] = tested on: Mycobacterium tuberculosis; assay: Antitubercular activity against dormant Mycobacterium tuberculosis H37Ra at 3 ug after 12 days by XTT-Menadione assay; assay type: functional
[4] = tested on: Bacillus subtilis; assay: Antibacterial activity against Bacillus subtilis at 30 ug after 12 hrs; assay type: functional
[5] = tested on: Bacillus subtilis; assay: Antibacterial activity against Bacillus subtilis at 3 ug after 12 hrs; assay type: functional
[6] = tested on: Pseudomonas fluorescens; assay: Antibacterial activity against Pseudomonas fluorescens at 3 ug after 8 hrs; assay type: functional
[7] = tested on: Staphylococcus aureus; assay: Antibacterial activity against Staphylococcus aureus at 30 ug after 12 hrs; assay type: functional
[8] = tested on: Mycolicibacterium smegmatis; assay: Antitubercular activity against dormant Mycobacterium smegmatis MC2 155 at 3 ug after 12 days by XTT-Menadione assay; assay type: functional, str. MC2 155
[9] = tested on: Bacillus subtilis; assay: Antibacterial activity against Bacillus subtilis at 10 ug after 12 hrs; assay type: functional
[10] = tested on: Mycobacterium tuberculosis; assay: Antitubercular activity against dormant Mycobacterium tuberculosis H37Ra at 10 ug after 12 days by XTT-Menadione assay; assay type: functional
[11] = tested on: Staphylococcus aureus; assay: Antibacterial activity against Staphylococcus aureus at 3 ug after 12 hrs; assay type: functional
[12] = tested on: Pseudomonas fluorescens; assay: Antibacterial activity against Pseudomonas fluorescens at 10 ug after 8 hrs; assay type: functional
[13] = tested on: Pseudomonas fluorescens; assay: Antibacterial activity against Pseudomonas fluorescens at 30 ug after 8 hrs; assay type: functional
[14] = tested on: Escherichia coli; assay: Antibacterial activity against Escherichia coli at 30 ug after 8 hrs; assay type: functional
[15] = tested on: Mycolicibacterium smegmatis; assay: Antitubercular activity against dormant Mycobacterium smegmatis MC2 155 at 10 ug after 12 days by XTT-Menadione assay; assay type: functional, str. MC2 155
[16] = tested on: Escherichia coli; assay: Antibacterial activity against Escherichia coli at 3 ug after 8 hrs; assay type: functional
[17] = tested on: Escherichia coli; assay: Antibacterial activity against Escherichia coli at 10 ug after 8 hrs; assay type: functional
[18] = tested on: Staphylococcus aureus; assay: Antibacterial activity against Staphylococcus aureus at 10 ug after 12 hrs; assay type: functional
[19] = tested on: Mycobacterium tuberculosis; assay: Antitubercular activity against dormant Mycobacterium tuberculosis H37Ra after 12 days by XTT-Menadione assay; assay type: functional, organism-based; conditions: 288 h

| SMILES | inhibition (INH) [1] | inhibition (INH) [2] | inhibition (INH) [3] | inhibition (INH) [4] | inhibition (INH) [5] | inhibition (INH) [6] | inhibition (INH) [7] | inhibition (INH) [8] | inhibition (INH) [9] | inhibition (INH) [10] | inhibition (INH) [11] | inhibition (INH) [12] | inhibition (INH) [13] | inhibition (INH) [14] | inhibition (INH) [15] | inhibition (INH) [16] | inhibition (INH) [17] | inhibition (INH) [18] | MIC [19] |
| --- | --- | --- | --- | --- | --- | --- | --- | --- | --- | --- | --- | --- | --- | --- | --- | --- | --- | --- | --- |
| Nc1nccnc1C(=O)NN1C(=O)CS[C@H]1c1ccc([N+](=O)[O-])cc1 | -10.9967% | 49.69% | 39.54% | -19.53% | 0.25% | 37.2% | -21.02% | 34.28% | -1.56% | 43% | 16.74% | 24.31% | -20.68% | 37.49% | -28.273% | 42.143% | 57.79% | -46.62% |  |
| Nc1nccnc1C(=O)NN1C(=O)CSC1c1ccc(Cl)cc1Cl (stereo not given) | 33.52% | 63.39% | 64.5% | 3.8% | -13.09% | 14.82% | -52.82% | 42.73% | -11.3% | 68.91% | -35.91% | -6.12% | 7.35% | -146.6% | 55.96% | -35.51% | 38.17% | -26.32% |  |
| Nc1nccnc1C(=O)NN1C(=O)CSC1c1cccc([N+](=O)[O-])c1 (stereo not given) | 50.45% | 64.96% | 63.89% | 17.93% | -23.1% | 4.173% | -37.97% | 36.91% | -12.6% | 62.55% | 5.486% | 25.83% | 47.95% | 34.42% | -86.9278% | -91.9% | 5.212% | -44.93% |  |
| CN(C)c1ccc(C2SCC(=O)N2NC(=O)c2nccnc2N)cc1 (stereo not given) | -93.9118% | 69.04% | 63.27% | 0.43% | 3.21% | 35.05% | 56.34% | 34.15% | 9.92% | 66.92% | 31.97% | 22.64% | 34.38% | 40.76% | 38.8231% | 49.71% | 62.03% | 9.5% |  |
| Nc1nccnc1C(=O)NN1C(=O)CSC1c1ccc(F)cc1 (stereo not given) | 37.72% | 71.96% | 68.04% | 3.63% | 14.29% | 27.83% | 8.99% | 28.7381% | 21.54% | 67.84% | -14.5% | 40.76% | 42.8% | 50.12% | -3.707% | 41.47% | 45% | -50.49% |  |
| Nc1nccnc1C(=O)NN1C(=O)CSC1c1ccc(Cl)cc1 (stereo not given) | 52.67% | 72.85% | 62.36% | 2.22% | -14.42% | 21.22% | -34.8% | 30.65% | -4.06% | 70.78% | 52.81% | 13.99% | -17.98% | 38.45% | 64.17% | -8.913% | -65.92% | 14.12% |  |
| Nc1nccnc1C(=O)NN1C(=O)CSC1c1ccc(O)cc1 (stereo not given) | 13.22% | 70.73% | 65.54% | 4.31% | 13.88% | 30.55% | 43.79% | 36.11% | 16.8% | 69.84% | 25.87% | 16.61% | 43.72% | 15.24% | 27.68% | 56.462% | 14.06% | 40.89% |  |
| Cc1cnc(C(=O)NN2C(=O)CSC2c2ccc(O)cc2)cn1 (stereo not given) | 7.295% | 75.49% | 64.79% | 16.21% | -6.172% | 29.07% | -4.04% | 30.34% | 19.81% | 70.55% | -7.09% | 29.13% | -20.73% | 32.37% | 15.78% | -51.23% | -32.72% | 6.02% |  |
| COc1ccc(C2SCC(=O)N2NC(=O)c2cnc(C)cn2)cc1OC (stereo not given) | 9.358% | 73.51% | 68.91% | 14.25% | 13.25% | -2.69% | 2.4% | 8.925% | 18.53% | 72.12% | 48.7% | 28.51% | -5.41% | -11.14% | 46.67% | -46.22% | -59.8% | -14.6% |  |
| Cc1cnc(C(=O)NN2C(=O)CSC2c2ccccc2)cn1 (stereo not given) | 61.3106% | 68.38% | 55.04% | -9.36% | 17.71% | 19.67% | 39.81% | 34.46% | 16.03% | 66.69% | -39.23% | 33.57% | 35.1% | 42.85% | 24.96% | 60.45% | 56.76% | 41.07% |  |
| COc1ccc(C2SCC(=O)N2NC(=O)c2cnc(C)cn2)cc1 (stereo not given) | 27.97% | 71.41% | 63.11% | 18.72% | 19.31% | -0.838% | -29.6% | 46.39% | -8.08% | 65.76% | -9.85% | 19.06% | 29.02% | 17.95% | 11.4077% | 9.978% | -9.96% | -29.27% |  |
| Cc1cnc(C(=O)NN2C(=O)CSC2c2ccc(Cl)cc2)cn1 (stereo not given) | -19.6759% | 62.27% | 60.85% | -36.6% | -0.29% | 27.78% | 16.66% | -84.5144% | -5.89% | 61.88% | -0.64% | 21.51% | 32.81% | 40.4% | 24.29% | 63.05% | 64.64% | -10.67% |  |
| C[C@H]1COC2(CCN(c3nc(=O)c4cc(C(F)(F)F)cc([N+](=O)[O-])c4s3)CC2)O1 [BTZ-043] |  |  |  |  |  |  |  |  |  |  |  |  |  |  |  |  |  |  | 3 ng/mL (≈ 6.95 nM) |
| NNC(=O)c1ccncc1 [ISONIAZID] |  |  |  |  |  |  |  |  |  |  |  |  |  |  |  |  |  |  | 75 ng/mL (≈ 547 nM) |
| NC(=O)c1cnccn1 [PYRAZINAMIDE] |  |  |  |  |  |  |  |  |  |  |  |  |  |  |  |  |  |  | > 10000 ng/mL |
| CO[C@H]1/C=C/O[C@@]2(C)Oc3c(C)c(O)c4c(O)c(c(/C=N/N5CCN(C)CC5)c(O)c4c3C2=O)NC(=O)/C(C)=C\C=C\[C@H](C)[C@H](O)[C@@H](C)[C@@H](O)[C@@H](C)[C@H](OC(C)=O)[C@@H]1C [RIFAMPIN] |  |  |  |  |  |  |  |  |  |  |  |  |  |  |  |  |  |  | 2.1 ng/mL (≈ 2.55 nM) |
